The record followed here is patent US4070458A, “Novel physiologically active peptide and its n-acyl derivatives and processes for producing thereof” (priority 1974, dated 1978).

Data set [1] deals with enzyme which decomposes R-Val-Val-X-Ala-X to Val-X-Ala-X. In words: Effect of various inhibitors and metal ions on the enzyme activity. In kind it is biochemical, Bacillus sphaericus ATCC 14577.
Another data set concerns Cathepsin D. In words: Anti-cathepsin D activity (method of The Journal of Antibiotics 25 689 (1972)). The class given is biochemical. On the procedure:
(§1) As an example of one of the physiological activities of the peptide and N-acyl derivatives thereof obtained according to the present invention, anti-pepsin and anti-cathepsin D activities and also acute toxicity are given in Table 8. The activities (ID50) were assayed according to the method described above and The Journal of Antibiotics 25 689 (1972). The antiprotease activities of the peptide and N-acyl derivatives thereof are extremely high.

A short description of the next data set: Acute toxicity in mice. In kind it is in vivo. As to conditions: mouse, in vivo, ip, abdominal injection. As for the experimental part:
as §1
(§2) Note: Acute toxicity was examined by administering the compounds to the
(§3) mice by abdominal injection
(§4) *This value was obtained by intravenous injection.

The target of the next data set is T1, pepsin (SIGMA, 2XCRY) (Sus scrofa, UniProt P00791).
T1 construct: purchased SIGMA 2XCRY
In words: Assay of pepsin-inhibitory activity (casein digestion). In kind it is biochemical. As for the experimental part: Assay of pepsin-inhibitory activity in this invention was performed according to the following method: A mixture of 1 ml of 0.6 %, by weight, highly purified casein dissolved in 0.08M lactate buffer solution, pH 2.2, 0.7 ml of 0.02M KCl-HCl buffer solution, pH 2.0, and 0.2 ml of solution containing the compound sample was incubated at 37° C for three minutes. To this mixture 4 mcg of pepsin (SIGMA, 2XCRY) dissolved in 0.1 ml of 0.2M KCl-HCl buffer solution were added. The mixture was incubated at 37° C for 30 minutes. The reaction was stopped by the addition of 2.0 ml of 1.7M perchloric acid. After one hour at room temperature, the optical density (a) of the supernatant liquid was read at 280 mμ. An inhibition rate was obtained according to:
where (b) is the optical density at 280 mμ of the tube without the sample solution.
The ID50 is defined as the amount necessary for 50 % of the inhibition rate.
as §1

The test system of a further data set is mice. In words: Acute toxicity in mice. In kind it is in vivo. As for the experimental part: as §1, §2, §3, §4
Another data set can be described thus: Solubility in water. In kind it is physicochemical. The text has this: The solubilities in water of the N-acyl derivatives according to the present invention are shown in Table 10 compared with the known N-acyl peptides having physiological activity.
Data set [2] can be described thus: Solubility of the hydrolysis product in organic solvents. In kind it is physicochemical.
Another data set relates to Stomach ulcers in rats. In words: Stress stomach ulcers in rats (method of Takagi et al.). The class given is in vivo. On the procedure:
Stomach ulcers in rats made by the method described in Takagi et al. in the Japanese Journal of Pharmacology, 18, 9-19, […], that is, placing male rats in a cage at 23° C. for 22 hours, are protected or therapetuically treated by the compounds. When 50 mg/kg of pepstatin and the compounds according to the invention were orally given 30 minutes before the stress, and the rats were sacrificed 48 hours afte the stress, the curative ratio of the ulcers was 60 - 75%. When the dose was 10 mg/kg, the inhibition percentage of the ulcers was 50 - 60%.

Setting [3] is: Concentration 2 mM, Control (No Addition) 100.
Setting [4] is: Concentration 10 mM, Control (No Addition) 100.
Where [5] appears, read: casein, pH 2, 37° C, 30 minutes, read-out: ID50 Pepsin (converted).

≈ marks a conversion by molar mass, not a printed value. Read-outs that look alike come from different tables or passages of the source. Bounds are passed on as bounds.

T1 sequence (P00791 60-385): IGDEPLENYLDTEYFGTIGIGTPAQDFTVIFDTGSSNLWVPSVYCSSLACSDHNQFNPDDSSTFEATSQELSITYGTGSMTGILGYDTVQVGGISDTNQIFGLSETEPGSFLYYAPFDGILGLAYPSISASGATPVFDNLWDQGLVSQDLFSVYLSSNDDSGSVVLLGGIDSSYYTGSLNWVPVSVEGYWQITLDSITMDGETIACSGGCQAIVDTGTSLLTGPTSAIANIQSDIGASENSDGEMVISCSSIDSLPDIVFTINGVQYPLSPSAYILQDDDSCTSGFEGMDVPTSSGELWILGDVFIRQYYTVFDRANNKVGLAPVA

`O[C@H](CS)[C@H](O)CS` (racemic) [Dithiothreitol]: the “Inhibition of the enzyme” value in data set [1] (2mM) is “Inhibition”. This compound also gave a Relative activity in data set [1] (setting [3]) of 0.

For `CC(C)C[C@H](NC(=O)[C@H](C)NC(=O)C[C@H](O)[C@H](CC(C)C)NC(=O)[C@@H](NC(=O)c1ccccc1)C(C)C)[C@@H](O)CC(=O)O` [Benzoyl-Val-X-Ala-X, N-benzoyl-Val-X-Ala-X], the “ID50 Cathepsin D” value in the data set with Cathepsin D amounted to 0.05 µg/mL (≈ 0.0824 µM). The 50% lethal dose (LD50) – broadly, the dose expected to kill half of the subjects tested – in the data set “Acute toxicity in mice” worked out at 1350 mg/kg. In the case of `[Ca+2].[Cl-].[Cl-]` [Calcium Chloride], in data set [1], the Relative activity amounted to 110 and the increase in activity is recorded as 29%.

On to `[Cl][Co][Cl]` [Cobalt Chloride], for which the Relative activity is given as 134 in data set [1] (setting [3]) and 166 in data set [1] (setting [4]). For `O=C(O)CN(CCN(CC(=O)O)CC(=O)O)CC(=O)O` [Ethylenediaminetetraacetic Acid], in data set [1] (setting [3]), the Relative activity is on record as 30. As to `[Cl][Hg][Cl]` [HgCl2], in data set [1] (2mM), the “Inhibition of the enzyme” value is reported as “Inhibition”. Regarding `CC(C)C[C@H](NC(=O)[C@H](C)NC(=O)C[C@H](O)[C@H](CC(C)C)NC(=O)[C@@H](NC(=O)C(C)C)C(C)C)[C@@H](O)CC(=O)O` [Isobutyryl-Val-X-Ala-X, N-isobutyryl-Val-X-Ala-X], the IC50 at pepsin (SIGMA, 2XCRY) (setting [5]) was 36.7 nM. For `CC(C)CC(=O)N[C@H](C(=O)N[C@@H](CC(C)C)[C@@H](O)CC(=O)N[C@@H](C)C(=O)N[C@@H](CC(C)C)[C@@H](O)CC(=O)O)C(C)C` [Isovaleryl-Val-X-Ala-X, N-isovaleryl-Val-X-Ala-X], the IC50 on pepsin (SIGMA, 2XCRY) (setting [5]) is 17 nM. Further, the “Acute toxicity LD0” value with mice (abdominal injection) is on record as at least 3000 mg/kg. The Solubility in water in “Solubility in water” (20° C) was 5,000 mcg/ml. Regarding `CC(C)C[C@H](NC(=O)[C@H](C)NC(=O)C[C@H](O)[C@H](CC(C)C)NC(=O)[C@@H](NC(=O)C(C)O)C(C)C)[C@@H](O)CC(=O)O` (some centres unmarked) [Lactoyl-Val-X-Ala-X, lactoyl-Val-X-Ala-X], the IC50 on pepsin (SIGMA, 2XCRY) (setting [5]) is 34.8 nM. The figures for the “Acute toxicity LD0” value in the data set with mice (abdominal injection) and with mice (intravenous injection) were at least 6000 mg/kg and at least 550 mg/kg, respectively. Moreover, the “Water solubility compared with other derivatives” value in “Solubility in water” is reported as “much more water soluble”. Moreover, the Solubility in water in the data set “Solubility in water” (20° C) is listed as ≥ 50,000 mcg/ml. On to `CC(=O)[O-].CC(=O)[O-].[Pb+2]` [Lead Acetate], for which, in data set [1], the Relative activity is 43.

In data set [1], `CC(=O)[O-].CC(=O)[O-].[Hg+2]` [Mercuric Acetate] yielded a Relative activity of 0.

In data set [1], `O=C(O)CI` [Monoiodoacetic Acid] displayed a Relative activity of 84. For the compound `O=C1CCC(=O)N1Br` [N-Bromosuccinimide], the “Inhibition of the enzyme” value in data set [1] (2mM) is listed as “Inhibition”. In data set [1] (setting [3]), this compound had a Relative activity of 0. In the case of `[N-]=[N+]=[N-].[Na+]` [NaN3], the Relative activity in data set [1] was found to be 100. Take `CCCCCCCCCCCCCCCC(=O)N[C@H](C(=O)N[C@@H](CC(C)C)[C@@H](O)CC(=O)N[C@@H](C)C(=O)N[C@@H](CC(C)C)[C@@H](O)CC(=O)O)C(C)C` [Palmitoyl-Val-X-Ala-X, N-palmitoyl-Val-X-Ala-X]: on pepsin (SIGMA, 2XCRY) (setting [5]), the IC50 is 607 nM.

`CC(=O)C(CC(C)C)NC(=O)[C@H](C)NC(=O)CC(O)C(CC(C)C)NC(=O)[C@@H](NC(=O)[C@@H](NC(=O)CC(C)C)C(C)C)C(C)C` (stereo partly drawn) [Pepstanone A, isovaleryl-Val-Val-X-Ala-X'] registered a Solubility in water in “Solubility in water” (20° C) of 50 µg/mL (≈ 78.1 µM).

In the case of `CC(C)CC(=O)N[C@H](C(=O)N[C@H](C(=O)N[C@@H](CC(C)C)[C@@H](O)CC(=O)N[C@@H](C)C(=O)N[C@@H](CC(C)C)[C@@H](O)CC(=O)O)C(C)C)C(C)C` [Pepstatin A], in the data set “Solubility in water”, the Solubility in water stood at 200 µg/mL (≈ 292 µM). In turn, `CCCCCC(=O)N[C@H](C(=O)N[C@H](C(=O)N[C@@H](CC(C)C)[C@@H](O)CC(=O)N[C@@H](C)C(=O)N[C@@H](CC(C)C)[C@@H](O)CC(=O)O)C(C)C)C(C)C` [Pepstatin B, n-caproyl-L-valyl-L-valyl-4-amino-3-hydroxy-6-methylheptanoyl-L-alanyl-4-a mino-3-hydroxy-6-methylheptanoic acid] registered a Solubility in water in the data set “Solubility in water” (20° C) of 100 µg/mL (≈ 143 µM). The compound `CC(C)C[C@H](NC(=O)[C@H](C)NC(=O)C[C@H](O)[C@H](CC(C)C)NC(=O)[C@@H](NC(=O)COc1ccccc1)C(C)C)[C@@H](O)CC(=O)O` [Phenoxyacetyl-Val-X-Ala-X, N-phenoxyacetyl-Val-X-Ala-X] gave an IC50 on pepsin (SIGMA, 2XCRY) of 31.4 nM. The LD50 in “Acute toxicity in mice” was found to be 1500 mg/kg. Further, the Solubility in water in the data set “Solubility in water” (20° C) was 20,000 mcg/ml. For the compound `CC(C)C[C@H](NC(=O)[C@H](C)NC(=O)C[C@H](O)[C@H](CC(C)C)NC(=O)[C@@H](NC(=O)C(C)Oc1ccccc1)C(C)C)[C@@H](O)CC(=O)O` (some centres unmarked) [Phenoxypropionyl-Val-X-Ala-X, N-2-phenoxypropionyl-Val-X-Ala-X], the IC50 at pepsin (SIGMA, 2XCRY) (setting [5]) was 30.7 nM. Further, the LD50 in the data set “Acute toxicity in mice” was found to be 2100 mg/kg. The Solubility in water in the data set “Solubility in water” (20° C) is reported as 15,000 mcg/ml. Turning to `CC(C)C[C@H](NC(=O)[C@H](C)NC(=O)C[C@H](O)[C@H](CC(C)C)NC(=O)[C@@H](N)C(C)C)[C@@H](O)CC(=O)O` [Val-X-Ala-X, L-valyl-4-amino-3-hydroxy-6-methylheptanoyl-L-alanyl-4-amino-3-hydroxy-6-m ethylheptanoic acid], the IC50 at pepsin (SIGMA, 2XCRY) is 19900 nM. Moreover, the “Acute toxicity LD0” value with mice (abdominal injection) is recorded as at least 5000 mg/kg. The “Solubility” value is “insoluble” in data set [2] (ether, ethyl acetate, and butyl acetate); “soluble” in data set [2] (methanol, ethanol, pyridine, and acetic acid); “slightly soluble” in data set [2] (n-propanol, n-butanol, n-amyl alcohol and acetone).

As to `[Cl-].[Cl-].[Zn+2]` [Zinc Chloride], the figures for the Relative activity in data set [1] (setting [3]) and in data set [1] (setting [4]) were 66 and 44, respectively. Consider `c1cnc2c(c1)ccc1cccnc12` [o-Phenanthroline], for which the “Inhibition of the enzyme” value in data set [1] (2mM) is listed as “Inhibition”. This compound registered a Relative activity in data set [1] (setting [3]) of 0. For the compound `O=C(O)c1cc[c]([Hg][Cl])cc1` [p-Chloromercuribenzoate], in data set [1], the “Inhibition of the enzyme” value is given as “Inhibition” and the Relative activity was determined as 2. As to `CC(C)CC(=O)N[C@H](C(=O)N[C@H](C(=O)N[C@@H](CC(C)C)[C@@H](O)CC(=O)N[C@@H](C)C(=O)N[C@@H](CC(C)C)[C@@H](O)CC(=O)O)C(C)C)C(C)C` [pepstatin], in the data set on Stomach ulcers in rats (50 mg/kg orally 30 minutes before the stress, rats sacrificed 48 hours after the stress), the “curative ratio of the ulcers” value was 60 - 75%. Besides, the “cure of ulcers” value in the data set with Stomach ulcers in rats (50 - 200 mg/kg immediately after the stress and once daily for 4 days) is “rapid cure of ulcers was proven”. Consider `OCCS` [β-Mercaptoethanol], for which the “Inhibition of the enzyme” value in data set [1] (2mM) is on record as “Inhibition”. In data set [1] (setting [3]), this compound yielded a Relative activity of 0.
